# Results from patent publication US12599613B2, “Composition comprising dutasteride” (Chong Kun Dang Pharmaceutical Corp., priority 2018, dated 2026).
# Assay: Dissolution rate of pharmaceutical composition in vitro (Korean Pharmacopoeia Method I, basket)
# Assay type: physicochemical
# Settings: 56 mg dutasteride, 900 mL 1% w/v sodium dodecyl sulfate, 37° C., 100 rpm
# Method: A dissolution rate of the inventive compositions in vitro was identified through the following experiment. Example 32 was filled into a disposable syringe in such an amount that corresponds to 56 mg of dutasteride and then injected into a dissolution medium, and Comparative Example 1 was directly put into a rotating basket in such an amount that corresponds to 56 mg of dutasteride. This experiment was performed according to the dissolution test method I in the 10th revision of the Korean Pharmacopocia and the conditions for dissolution are as follows.
# <Conditions for Dissolution of Pharmaceutical Composition>
# • Dissolution method: Method I of the Korean Pharmacopoeia (Appratus I—Basket) • Dissolution medium: 900 mL of solution containing 1% w/v sodium dodecyl sulfate • Dissolution temperature: 37±0.5° C. • Rotation speed: 100 rpm • Test hour: 1, 3, 6, 12 and 24 hours
# With regard to a concentration of dutasteride in a dissolution sample, a dissolution rate for 24 hours was analyzed with HPLC under the condition of Experimental Example 1 and the results thereof were shown in FIG. 2.
smiles,measurement,setting,value
"C[C@]12C=CC(=O)N[C@@H]1CC[C@@H]1[C@@H]2CC[C@]2(C)[C@@H](C(=O)Nc3cc(C(F)(F)F)ccc3C(F)(F)F)CC[C@@H]12 [Comparative Example 1, dutasteride]",state of dutasteride in the dissolution medium (dissolved / precipitated),,a part of the drug only was dissolved into the dissolution medium
same,dissolution rate with an elapse of time,24 hours,hardly increased with an elapse of time from one hour after
